Measurements published in patent US20200109117A1, “Modified Therapeutic Agent Analogs of Mefenamic Acid” (ACCESS Association, priority 2018, published 2020).
Read-outs that look alike come from different tables or passages of the source.

Experiments:
[1] = Solubility in distilled water and normal saline, visual inspection and HPLC; type: physicochemical; settings: for Aqueous solubility checked on HPLC: aqueous solution, analogs compared with MFA; for Aqueous solubility on visual inspection: analogs compared with parent MFA
Text: The solubility of each molecular structure was checked in distilled water as well as in normal saline.

[2] = Stability study of MFA analogs in acetonitrile and distilled water, 1 day and 7 days, visual and HPLC; type: physicochemical; settings: for Stability in acetonitrile and in distilled water up to 7 days: 4° C. and room temperature (~25° C.); for Stability 1 Day ACN 4° C. / Stability 7 Day ACN 4° C. / Stability 1 Day ACN RT / Stability 7 Day ACN RT: acetonitrile; for Stability 7 Day ACN 4° C. / Stability 7 Day ACN RT / Stability 7 Day DW 4° C. / Stability 7 Day DW RT: 7 days; for Stability 1 Day ACN RT / Stability 7 Day ACN RT / Stability 1 Day DW RT / Stability 7 Day DW RT: room temperature (~25° C.); for Stability 1 Day DW 4° C. / Stability 7 Day DW 4° C. / Stability 1 Day DW RT / Stability 7 Day DW RT: distilled water; for Stability in acetonitrile / Stability in distilled water after 1 day: after 1 day
Text: Therapeutic agents stable after 1 day were subjected to a 7 day stability study.
FIG. 1 provides the HPLC chromatogram of MFA-NIC showing stability of the modified drug kept at room temperature on day seven. FIG. 2 provides the HPLC chromatogram of MFA-MeNIC showing stability of the modified drug kept at room temperature on day seven.

[3] = test system: pilocarpine-induced seizure rats; test: Brain metabolite levels by MR spectroscopy (ratios to Cho) in rat seizure pre-clinical model; type: in vivo
Experimental: Assessments were conducted using Contrast-enhanced (CE) magnetic resonance (MR) imaging (MRI) and MR spectroscopy (MRS). […] A more recent model by Jeong et al. (2017) was adopted, where a lower dose of pilocarpine (25 mg/kg i.p.) was preceded by lithium chloride (127 mg/kg i.p.) 19 hours before, and scopolamine (2 mg/kg i.p.) 30 min. before, pilocarpine. Injection of pilocarpine induced status epilepticus about 20-30 min post-pilocarpine (Jeong et al., 2017).
MRS was used to assess levels of brain metabolites, including N-acetyl aspartate (NAA), total creatine (Cr, total choline (Cho), taurine (Tau), glutamate (Glu) and myo-inositol (Myo-Ins). Cho was used as a normalization reference for all other metabolites. For the control group a total of 10 rats were assessed. For all other treatment groups n=5.

[4] = test system: pilocarpine-induced seizure rats; test: EEG of seizure episodes in rat seizure model; type: in vivo; settings: preliminary data
[5] = test system: pilocarpine-induced seizure rats; test: BBB permeability by contrast-enhanced MRI (Gd-DTPA) in rat seizure pre-clinical model; type: in vivo
Experimental: Structure (I), MFA-NIC, was assessed as a possible therapeutic in a rat seizure pre-clinical model. Assessments were conducted using Contrast-enhanced (CE) magnetic resonance (MR) imaging (MRI) and MR spectroscopy (MRS). The seizure model initially involved injection of pilocarpine (380 mg/kg i.p.) alone (Ikonomidou-Turski et al., 1988), however all rats undergoing this procedure died before MRS data could be obtained. A more recent model by Jeong et al. (2017) was adopted, where a lower dose of pilocarpine (25 mg/kg i.p.) was preceded by lithium chloride (127 mg/kg i.p.) 19 hours before, and scopolamine (2 mg/kg i.p.) 30 min. before, pilocarpine. Injection of pilocarpine induced status epilepticus about 20-30 min post-pilocarpine (Jeong et al., 2017). Pascente et al. (2016) also used lithium chloride 18 hours before pilocarpine. Scopolamine was also used by Behr et al. (2017) 30 m in before pilocarpine. Electroencephalography (EEG) was used in the Behr et al. study to confirm seizures.
A MRI contrast agent, Gd-DTPA (gadolinium diethylene triamine penta acetic acid) was used to establish if there was increased BBB permeability. […] Three brain regions were assessed: hippocampus, thalamus and cerebral cortex. […] This may be due to the variability in the change in MRI signal intensity in the seizure group, and the low number of rats per group. The smaller variability in the saline-treated controls was due to the large […] of n=25 (obtained from a previous study conducted in the Towner group). […] The saline-treated controls were used for all statistical comparisons.

[6] = pH 7.1; cited from earlier work
[7] = distilled water, water, solvent DW (distilled water), read-out: Solubility after molecular weight correction factor
[8] = distilled water, water, solvent DW (distilled water), read-out: Solubility in NS and DW
[9] = normal saline, saline or isotonic, solvent NS (normal saline), read-out: Solubility after molecular weight correction factor
[10] = normal saline, saline or isotonic, solvent NS (normal saline), read-out: Solubility in NS and DW
[11] = 200 mg/kg dose, found most effective
[12] = central brain region (primarily hippocampus), 10 mg/kg via gavage
[13] = cerebral cortex, 50 mg/kg via gavage
[14] = cerebral cortex, 200 mg/kg via gavage

SMILES: CNC(=O)c1ccc[n+](COC(=O)c2ccccc2Nc2cccc(C)c2C)c1 [MFA-MeNIC, MFA- N-Methylnicotinamide]
- Aqueous solubility checked on HPLC [1]: much higher
- solubility [1, 7]: 200 µg/mL
- solubility [1, 8]: 460 µg/mL
- solubility [1, 9]: 270 µg/mL
- solubility [1, 10]: 600 µg/mL
- Area (HPLC) ([1]; solvent DW (distilled water)): 10643970
- Area (HPLC) ([1]; solvent NS (normal saline)): 13844823
- Aqueous solubility on visual inspection ([1]; water): significantly higher
- Stability in acetonitrile and in distilled water up to 7 days [2]: stable
- Stability 1 Day ACN 4° C. [2]: Stable
- Stability 7 Day ACN 4° C. [2]: Stable
- Stability 1 Day ACN RT [2]: Stable
- Stability 7 Day ACN RT [2]: Stable
- Stability 1 Day DW 4° C. [2]: Stable
- Stability 7 Day DW 4° C. [2]: Stable
- Stability 1 Day DW RT [2]: Stable
- Stability 7 Day DW RT [2]: Stable

SMILES: Cc1cccc(Nc2ccccc2C(=O)OC[n+]2cccc(C(N)=O)c2)c1C [MFA-NIC, MFA-Nicotinamide]
- Brain metabolite levels, overall effect [3, 11]: effective in restoring brain metabolite levels back to normal
- Myo-Ins/Cho ratio vs control (non-treated, non-seizure) group [3, 12]: significant decrease
- NAA/Cho ratio vs control (non-treated, non-seizure) group [3, 12]: significant decrease
- Aqueous solubility checked on HPLC [1]: much higher
- solubility [1, 7]: 130 µg/mL
- solubility [1, 8]: 280 µg/mL
- solubility [1, 9]: 40 µg/mL
- solubility [1, 10]: 100 µg/mL
- Area (HPLC) ([1]; solvent DW (distilled water)): 6867539
- Area (HPLC) ([1]; solvent NS (normal saline)): 2350506
- Aqueous solubility on visual inspection ([1]; water): significantly higher
- Level of seizure episodes (EEG) [4]: does reduce the level of seizure episodes
- BBB permeability, overall effect [5, 11]: effective in preventing an increase in BBB permeability
- BBB permeability vs saline-treated controls ([5]; cerebral cortex, 10 mg/kg via gavage): not significantly different
- BBB permeability vs saline-treated controls [5, 13]: significant increase
- BBB permeability vs saline-treated controls [5, 14]: not significantly different
- BBB permeability vs saline-treated controls ([5]; hippocampus, all doses (10, 50 or 200 mg/kg via gavage)): None of the MFA-NIC (shown in FIGS. 4-11 as pro-MFA or pMFA)-treated rats were found to be significantly different
- BBB permeability vs saline-treated controls ([5]; thalamus, all doses (10, 50 or 200 mg/kg via gavage)): None of the MFA-NIC (pro-MFA or pMFA)-treated rats were found to be significantly different
- Stability in acetonitrile and in distilled water up to 7 days [2]: stable
- Stability 1 Day ACN 4° C. [2]: Stable
- Stability 7 Day ACN 4° C. [2]: Stable
- Stability 1 Day ACN RT [2]: Stable
- Stability 7 Day ACN RT [2]: Stable
- Stability 1 Day DW 4° C. [2]: Stable
- Stability 7 Day DW 4° C. [2]: Stable
- Stability 1 Day DW RT [2]: Stable
- Stability 7 Day DW RT [2]: Stable

SMILES: Cc1cccc(Nc2ccccc2C(=O)OCOC(=O)c2ccc[n+](COC(=O)NC(C)C)c2)c1C [MFA-PCA, MFA-Pyridinium, 3-carboxy-1-[N-(1-methylethyl)carbamic acid]]
- Stability in acetonitrile [2]: not found to be stable
- Stability in distilled water after 1 day [2]: not found to be stable

SMILES: Cc1cccc(Nc2ccccc2C(=O)O)c1C [MFA, N-(2,3-Dimethylphenyl)anthranilic acid, reference compound]
- Water solubility [6]: 0.004%
- Aqueous solubility checked on HPLC [1]: No peak
- Area (HPLC) ([1]; solvent DW (distilled water)): No Peak
- Area (HPLC) ([1]; solvent NS (normal saline)): No Peak
- Aqueous solubility on visual inspection ([1]; water): insoluble
- BBB permeability vs saline-treated controls [5, 13]: significant increase
- BBB permeability vs saline-treated controls [5, 14]: significant increase
- BBB permeability vs saline-treated controls ([5]; hippocampus, 50 mg/kg via gavage): significant increase
- BBB permeability vs saline-treated controls ([5]; thalamus, 50 mg/kg via gavage): significant increase
- BBB permeability vs saline-treated controls ([5]; thalamus, 200 mg/kg via gavage): significant increase

SMILES: Cc1cccc(Nc2ccccc2C(=O)OCOC(=O)c2ccc[n+](C)c2)c1C [MFA-MeNICA, MFA-N-methylnicotinic acid]
- Stability 1 Day ACN 4° C. [2]: Stable
- Stability 1 Day ACN RT [2]: Stable
- Stability in acetonitrile [2]: stable
- Stability in distilled water after 1 day [2]: unstable

SMILES: Cc1cccc(Nc2ccccc2C(=O)OC[n+]2cccc(C(=O)N(C)C)c2)c1C [MFA-2MeNIC, MFA- N,N-Dimethylnicotinamide N-Methylnicotinamide]
- Aqueous solubility checked on HPLC [1]: much higher
- solubility [1, 7]: 180 µg/mL
- solubility [1, 8]: 390 µg/mL
- solubility [1, 9]: 330 µg/mL
- solubility [1, 10]: 720 µg/mL
- Area (HPLC) ([1]; solvent DW (distilled water)): 9876828
- Area (HPLC) ([1]; solvent NS (normal saline)): 18274457
- Aqueous solubility on visual inspection ([1]; water): significantly higher
- Stability in acetonitrile and in distilled water up to 7 days [2]: stable
- Stability 1 Day ACN 4° C. [2]: Stable
- Stability 7 Day ACN 4° C. [2]: Stable
- Stability 1 Day ACN RT [2]: Stable
- Stability 7 Day ACN RT [2]: Stable
- Stability 1 Day DW 4° C. [2]: Stable
- Stability 7 Day DW 4° C. [2]: Stable
- Stability 1 Day DW RT [2]: Stable
- Stability 7 Day DW RT [2]: Stable
